In patent US20040057908A1, “Oral compositions and use thereof” (priority 2003, published 2004):
≈ marks a conversion by molar mass, not a printed value. Where “and” joins values, the source holds several entries; their conditions need not be identical. Identical values can stand only once. Like-named read-outs stand apart in the source and are kept apart here. Marks after values point to notes of the source that are not given here.

Legend:
[1] = tested on: S. mutans UA159 and S. sobrinus 6715 biofilms; assay: Time-kill assay in 5-day-old biofilms; assay type: cell-based; conditions: for antibacterial activity against mutans streptococci biofilms (in words): 1.33 mM (fluoride 250 ppm); for decrease in viable counts of biofilms: 1.33 mM, after 2-4 h incubation
Procedure: Cells of mutans streptococci were grown in tryptone-yeast extract broth with addition of 1% (w/v) sucrose at 37° C. and 5% CO2. […] The killing assays were performed according to Phan et al. (2000). […] The homogenized suspension was serially diluted (10^1 to 10^4) and plated on tryptic soy agar or blood agar by means of a spiral plater (Autoplate model 3000, Spiral Biotech, Inc., Bethesda, Md). […] Killing curves were constructed by plotting log10 CFU/ml versus time over 4 h. All the assays were carried out in quadruplicate on at least 3 different occasions. Bactericidal effect was defined as a ≧3 log10 decreases in the CFU/ml from initial viable counts, at time zero. The potential for drug carry-over to produce falsely low viability counts was minimized by dilution of inocula and plating of small volumes of diluted samples (50 μl).

[2] = tested on: Streptococcus sobrinus 6715; assay: Rat caries experiment: S. sobrinus recovered from the jaws; assay type: in vivo, Sprague Dawley rats; conditions: rats, topical twice daily, five weeks; 1.33 mM (fluoride 250 ppm); means (SD)
Procedure: (§1) Seven litters of ten female Sprague Dawley rats aged 14 days were purchased with their dams from Charles River (Kingston, N.Y., USA). […] The experiment proceeded for five weeks, at which time the animals were killed by CO2 asphyxiation. The lower left jaw was aseptically dissected, suspended in 5.0 mL of sterile saline solution, and sonicated (three 10-second pulses with 5-second intervals at 30 watts, Branson Sonifier 450). The suspension was plated on mitis salivarius agar plus streptomycin to estimate S. sobrinus population and on blood agar to determine total cultivable flora (TCF). […] The determination of caries score was blind by codification of the jaws and was done by 1 calibrated examiner. […] The level of significance was 5%.

[3] = tested on: Mutans Streptococci Strains; assay: MIC and MBC, broth dilution, all strains stated together; assay type: cell-based, S. mutans (GS-5 and UA159) and S. sobrinus 6715; conditions: Streptococcus mutans; for MIC: read-out: MIC
Procedure: (§2) The minimum inhibitory concentration (MIC) and minimum bactericidal concentration (MBC) were determined for each test compound according to the National Committee for Clinical Laboratory Standards guidelines (Tentative standard M26-T, 1992; NCCLS Publication No. M7-A5, 2000) and Koo et al. (2000b). The broth microdilution and macrodilution methods (in TSB) were used for the antibacterial tests. The starting inoculum was 5×10^5 CFU/ml and the concentrations of test compounds ranged from 15.6 to 500 μM (two-fold dilutions). The MICs and MBCs were determined in quadruplicate in at least 3 different experiments.

[4] = tested on: mutans streptococci; assay: Time-kill studies, broth macrodilution; assay type: cell-based, S. mutans GS-5 and UA159, S. sobrinus 6715
Procedure: For the compound with highest antibacterial activity, the time kill studies were performed by broth macrodilution method (National Committee for Clinical Laboratory Standards, Tentative standard M26-T, 1992). The starting inoculum of S. mutans GS-5 and UA159, and S. sobrinus 6715 was 1-5×10^6 CFU/ml. The final concentration of the antibacterial agent was 4 times MIC (or MBC values). Tubes containing the microorganisms and the test compound in TSB were incubated in 5% CO2 at 37° C.; samples were removed for viable counts at 0, 30 min., 1, 2, 4, 8, and 24 h. Serial dilutions (10^−1 to 10^−4) were prepared in sterile 0.9% sodium chloride solution. The diluted sample (50 μl) was plated on to tryptic soy agar by means of a spiral plater (Autoplate model 3000, Spiral Biotech, Inc., Bethesda, Md.). The plates were incubated in 5% CO2 at 37° C. for 48 h, when the number of colonies was determined. Killing curves were constructed by plotting log10 CFU/ml versus time over 24 h. All the assays were done in quadruplicate on at least 3 occasions. Bactericidal effect was defined as a ≧3 log10 decreases in the CFU/ml from the original inoculum. The potential for drug carry-over to produce falsely low viability counts was minimized by dilution of inocula and plating of small volumes of diluted samples (50 μl). In addition, no evidence of drug carry-over was detected at the lowest dilution used for plating (10^−1).

[5] = tested on: T1, streptococcal GTFs; assay: GTF activity adsorbed onto sHA surface, all GTFs stated together; assay type: biochemical, Streptococcus mutans, S. sanguinis; conditions: 1.33 mM
T1 construct: Streptococcus milleri KSB8, which harbors the gtfB gene from S. mutans GS-5 (for GTF B production)
Procedure: Glucosyltransferase activity was measured by the incorporation of [^14C-glucose] from labeled sucrose (NEN Research Products, Boston, Mass.) into glucans (Germaine et al., 1974; Venkitaraman et al., 1995). The GTF enzyme added to each sample for all assays was equivalent to the amount required to incorporate 1.0-1.5 μmol of glucose over the four hours reaction (1.0-1.5 units).
For surface assays, the GTFs were adsorbed to hydroxyapatite beads coated with clarified whole saliva (free of GTF activity), as detailed elsewhere (Koo et al., 2000c; Schilling and Bowen, 1988, Venkitaraman et al., 1995). The saliva-coated hydroxyapatite (sHA) beads were exposed to sufficient enzyme to saturate the surface as determined experimentally. Following the adsorption of the enzyme, the beads were washed 3 times with buffer to remove the loosely bound material and exposed to 300 μl of the two-fold dilution series of test compounds (or control) for 30 min. at the same concentrations described above. The beads were washed and exposed to 300 μl [^14C-glucose]-sucrose substrate (100.0 mmol/l sucrose, final concentration). The radiolabeled glucan formed was collected and quantified by scintillation counting (Germaine et al., 1974; Venkitaraman et al., 1995). All the solution and surface assays were done in quadruplicate in at least 3 different experiments. […]

[6] = tested on: dental caries; assay: Rat caries experiment: caries scores (Larson's modification of Keyes' system); assay type: in vivo, Sprague Dawley rats; conditions: for smooth-surface caries severity scores versus control (in words): Ds and Dm levels, tt-farnesol Dm only; for smooth-surface caries severity scores versus control (in words) / reduction of the incidence of smooth surface caries compared to control / incidence and severity of sulcal-surface caries (in words): p<0.05; for smooth surface caries, Keyes's score / reduction of the incidence of smooth surface caries compared to control / incidence and severity of sulcal-surface caries (in words): rats; for smooth surface caries, Keyes's score / reduction of the incidence of smooth surface caries compared to control: topical twice daily, five weeks
Procedure: as §1

[7] = tested on: T1, streptococcal GTFs; assay: GTF activity in solution, all GTFs (B, C, D, Ss) stated together; assay type: biochemical, Streptococcus mutans, S. sanguinis; conditions: for inhibitory effects on the activities of GTFs (in words): 1.33 mM (fluoride 250 ppm), solution and sHA surface
Procedure: The GTF enzyme added to each sample for all assays was equivalent to the amount required to incorporate 1.0-1.5 μmol of glucose over the four hours reaction (1.0-1.5 units).
The samples were incubated 37° C. with rocking for 4 h.
For this assay, a one-way layout experimental design was used in 4×2×7 factorial scheme (enzyme×state×dose). An analysis of variance was carried out and qualitative treatments were compared using Tukey test at level of 5% of significance (p<0.05). A non-linear regression was applied in order to evaluate effects of different concentrations.

[8] = tested on: Streptococcus sobrinus 6715; assay: MIC and MBC, broth dilution; assay type: cell-based
Procedure: as §2

[9] = tested on: Streptococcus mutans UA 159; assay: MIC and MBC, broth dilution; assay type: cell-based
Procedure: as §2

[10] = tested on: Streptococcus mutans GS-5; assay: MIC and MBC, broth dilution; assay type: cell-based
Procedure: as §2

[11] = tested on: biofilms; assay: Formation of biofilms (continued research); assay type: cell-based
[12] = tested on: S. mutans strains; assay: MIC and MBC, broth dilution, S. mutans strains stated together; assay type: cell-based, S. mutans (GS-5 and UA159)
Procedure: as §2

[13] = tested on: streptococci; assay: Membrane disruption seen in the phase-contrast microscope; assay type: cell-based

For `[H]/N=C(\N/C(=N/[H])NCCCCCCNC(=N)NC(=N)Nc1ccc(Cl)cc1)Nc1ccc(Cl)cc1` [Chlorhexidine, chlorhexidine, reference compound], the “antibacterial activity against mutans streptococci biofilms (in words)” value (from here on “antibacterial activity”) [1] was “not bactericidal”, the “decrease in viable counts of biofilms” value [1] was 2-3 log10 CFU/ml and the “Infection by S. sobrinus, %” value [2] was 34.1 (10.8)^b %. For the same molecule, the MIC ([3]; all strains tested (S. mutans GS-5, UA159, S. sobrinus 6715)) was 1.1 to 2.2 µM, the MIC ([3]; all strains tested) was 1 to 2 µg/mL and the MBC ([3]; mutans streptococci strains) was 8.9 µM and 8 µg/mL. The “incubation time to bactericidal effects” value ([4]; 8.9 μM (MBC), mutans streptococci strains) was 8 h, the “inhibition of GTFs on a surface” value [5] was 10-20% and the “smooth-surface caries severity scores versus control (in words)” value [6] was “significantly lower”. For the same molecule, the “smooth surface caries, Keyes's score” value [6] was 2.0±1.9, the “reduction of the incidence of smooth surface caries compared to control” value [6] was 75% and the “incidence and severity of sulcal-surface caries (in words)” value [6] was “reduced”. The “inhibition of GTFs in solution” value ([7]; 1.33 mM) was 30-45% and the “inhibitory effects on the activities of GTFs (in words)” value (shortened to “inhibitory effects on the activities”) [7] was “either negligible or moderate inhibitory effects”.
In the case of `[F-].[Na+]` [Fluoride, sodium fluoride], the “antibacterial activity” value [1] is reported as “devoid of detectable antimicrobial and anti-GTF activity”, the “antibacterial activity” value ([1]; listed as fluoride) is reported as “negligible antibacterial activity” and the “Infection by S. sobrinus, %” value [2] is reported as 39.8 (13.2)^ab %. The “smooth-surface caries severity scores versus control (in words)” value [6] was “significantly lower”, the “smooth surface caries, Keyes's score” value [6] was 2.3±3.0 and the “reduction of the incidence of smooth surface caries compared to control” value [6] was 72%. For the same molecule, the “incidence and severity of sulcal-surface caries (in words)” value [6] was “reduced”, the “inhibitory effects on the activities” value [7] was “devoid of detectable antimicrobial and anti-GTF activity” and the “inhibitory effects on the activities” value ([7]; listed as fluoride) was “either negligible or moderate inhibitory effects”.
`CC(C)=CCC/C(C)=C/CC/C(C)=C/CO` [tt-Farnesol] showed an MBC ([8]; S. sobrinus 6715) of 56 µg/mL, an MIC ([8]; S. sobrinus 6715) of 14 µg/mL and an MBC ([8]; Streptococcus sobrinus 6715) of 250 µM. The MIC ([8]; Streptococcus sobrinus 6715) was 62.5 µM, the MBC [9] was 500 µM (≈ 111 µg/mL) and the MIC [9] was 125 µM (≈ 27.8 µg/mL). The MBC [10] was 500 µM (≈ 111 µg/mL), the MIC [10] was 125 µM (≈ 27.8 µg/mL) and the “decrease in viable counts of biofilms” value [1] was 1 log10 CFU/ml. The “Infection by S. sobrinus, %” value [2] was 44.8 (8.2)^a %, the “incubation time to bactericidal effects (≧3 log decrease in CFU/ml)” value ([4]; four times the MIC (or MBC), S. sobrinus 6715 and S. mutans strains) was 4-8 h and the “reduction of viable counts” value ([4]; four times the MIC (or MBC), within 30 min. to 1 h of incubation) was 1 log of CFU/ml. The “formation of biofilms (in words)” value [11] was “inhibits formation of biofilms”, the MBC [12] was 500 μM and 112 μg/ml and the MIC [12] was 125 μM and 28 μg/ml. For the same molecule, the “smooth-surface caries severity scores versus control (in words)” value [6] was “significantly lower”, the “inhibitory effects on the activities” value [7] was “either negligible or moderate inhibitory effects” and the “effects on enzyme activity (GTFs)” value ([7]; 1.33 mM, solution or surface not specified) was 10-20%. The “concentration giving visible membrane disruption of streptococci” value [13] was > 10 mM.
